{"source": "patent US20040166148A1", "about": "“Transdermal therapeutic delivery systems with a butenolide” (priority 2003, published 2004)", "experiment": "Storage stability of drug solutions: N-oxide content by ion pair reversed phase HPLC", "type": "physicochemical", "settings": "solutions stored for 7 days at 40° C.; formulation employing levulinic acid"}
{"smiles": "CC(=O)CCC(=O)O", "note": "[levulinic acid]", "values": [{"measurement": "N-oxide content of the formulation", "result": "below 0.06%"}]}
